Consider one molecule from patent US9179694B2, “Method and composition for enhancing milk production and milk component concentrations” (PURINA ANIMAL NUTRITION LLC, priority 2003, dated 2015).

Marks after values point to notes of the source that are not given here.

The nature of this experiment: Non-esterified fatty acid (NEFA) concentration in blood in sorbitol feeding trials. The class given is in vivo, Holstein cows. To be noted: for lower concentration of NEFA in the blood: at about the time of giving birth. The protocol: To determine the weight percent of non-esterified fatty acid NEFA, wet basis, in a sample of blood, the blood sample is analyzed by an enzymatic colorimetric method (ACS-ACOD) using the NEFA C diagnostic kit (WAKO Chemicals USA, Richmond, Va.) in combination with an Hitachi 704 Automated Chemistry Analyzer (Hitachi Ltd., Tokyo, Japan). The enzymatic colorimetric method utilizes acyl-CoA synthethase (ACS) and acyl-CoA oxidase (ACOD) to produce a substance that may be measured colorimetrically. The NEFA analysis is conducted in accordance with the NEFA C ACS-ACOD Method instructions that WAKO Chemicals USA provides along with the NEFA C diagnostic kit.
Each cow of each of the six different trials (Control Trial #1, Control Trial #2, Pre-Partum Trial #1, Pre-Partum Trial #2, Pre/Post Trial #1, and Pre/Post Trial #2) was milked three times daily and the weight of produced milk by each cow was recorded at each milking. The milk from each cow was sampled once per week (⅓ of the sample volume from each of the three milkings occurring on the weekly milk sampling day) and was analyzed for true protein, total fat, lactose, and total solids, as detailed in the property determination and characterization techniques presented above. Additionally, samples of blood were periodically obtained from each cow during the four trials (Control Trial 2, Pre-Partum Trial #2, Pre/Post Trial #1, and Pre/Post Trial #2) encompassed in Example Two and were analyzed for non-esterified fatty acid (NEFA) content as detailed in the property determination and characterization techniques presented above. No NEFA analysis was conducted on the cows employed in Control Trial #1 or Pre-Partum Trial #1 that are the subject of Example One.
Example Two includes Control Trial #2, Pre-Partum Trial #2, Pre/Post Trial #1, and Pre/Post Trial #2. Only multiparious, Holstein cows were included in Control Trial #2, Pre-Partum Trial #1, Pre/Post Trial #1, and Pre/Post Trial #2. Eighteen multiparious cows were included in both Control Trial #2 and Pre-Partum Trial #2, while sixteen multiparious cows were included in Pre/Post Trial #1 and seventeen multiparious cows were included in Pre/Post Trial #2.

Regarding `OC[C@@H](O)[C@@H](O)[C@H](O)[C@@H](O)CO` [sorbitol], the “Non-Esterified Fatty Acid (NEFA) Concentration in Blood” value (shortened to “Non-Esterified Fatty Acid”) is listed as 0.470^ab mEq/l (Pre-Partum Trial #2 (75/0/100 g/day in wk −3..−1/+1..+4/+5..+8), multiparious cows, day 0 (Calving)); 0.372 mEq/l (Pre-Partum Trial #2 (75/0/100 g/day in wk −3..−1/+1..+4/+5..+8), multiparious cows, day +10); 0.122 mEq/l (Pre-Partum Trial #2 (75/0/100 g/day in wk −3..−1/+1..+4/+5..+8), multiparious cows, day −7); 0.103 mEq/l (Pre-Partum Trial #2 (75/0/100 g/day in wk −3..−1/+1..+4/+5..+8), multiparious cows, day −21); 0.416^a mEq/l (Pre/Post Trial #1 (150/125/100 g/day in wk −3..−1/+1..+4/+5..+8), multiparious cows, day 0 (Calving)); 0.416^b mEq/l (Pre/Post Trial #1 (150/125/100 g/day in wk −3..−1/+1..+4/+5..+8), multiparious cows, day 0 (Calving), two-trial comparison with Control Trial #2 (Table 27)). For the same molecule, the “Non-Esterified Fatty Acid” value by setting is: (Pre/Post Trial #1 (150/125/100 g/day in wk −3..−1/+1..+4/+5..+8), multiparious cows, day +10) 0.476 mEq/l; (Pre/Post Trial #1 (150/125/100 g/day in wk −3..−1/+1..+4/+5..+8), multiparious cows, day +10, two-trial comparison with Control Trial #2 (Table 27)) 0.476 mEq/l; (Pre/Post Trial #1 (150/125/100 g/day in wk −3..−1/+1..+4/+5..+8), multiparious cows, day −7) 0.107 mEq/l; (Pre/Post Trial #1 (150/125/100 g/day in wk −3..−1/+1..+4/+5..+8), multiparious cows, day −7, two-trial comparison with Control Trial #2 (Table 27)) 0.107 mEq/l; (Pre/Post Trial #1 (150/125/100 g/day in wk −3..−1/+1..+4/+5..+8), multiparious cows, day −21) 0.141 mEq/l; (Pre/Post Trial #1 (150/125/100 g/day in wk −3..−1/+1..+4/+5..+8), multiparious cows, day −21, two-trial comparison with Control Trial #2 (Table 27)) 0.141 mEq/l. Further, the “Non-Esterified Fatty Acid” value is, setting by setting: (Pre/Post Trial #2 (75/75/100 g/day in wk −3..−1/+1..+4/+5..+8), multiparious cows, day 0 (Calving)) 0.637^ab mEq/l; (Pre/Post Trial #2 (75/75/100 g/day in wk −3..−1/+1..+4/+5..+8), multiparious cows, day +10) 0.556 mEq/l; (Pre/Post Trial #2 (75/75/100 g/day in wk −3..−1/+1..+4/+5..+8), multiparious cows, day −7) 0.119 mEq/l; (Pre/Post Trial #2 (75/75/100 g/day in wk −3..−1/+1..+4/+5..+8), multiparious cows, day −21) 0.114 mEq/l. Also, the “lower NEFA concentrations in blood” value (Pre/Post Trial #1 (150/125/100 g/day) versus Control Trial #2, multiparious cows, at calving (Table 27)) is on record as 42%. Further, the “lower concentration of NEFA in the blood” value runs as follows: (Pre/Post Trial #2 (so in the source) versus Control Trial #2, multiparious cows) 42%; (average of means of Pre-Partum Trial #2, Pre/Post Trial #1 and Pre/Post Trial #2 versus Control Trial #2, multiparious cows) 28%. The “NEFA concentrations in blood compared with control” value (all three sorbitol feeding trials (Pre-Partum Trial #2, Pre/Post Trial #1, Pre/Post Trial #2), multiparous cows, the week before calving and at calving) is “lower than the NEFA concentrations in blood found during Control Trial #2”.
